Source: patent publication US10676744B2, “Modulation of adipose tissue macrophage phenotype by use of MicroRNA-30” (University of South Carolina, priority 2017, dated 2020)

Legend:
Assay type in all cases: cell-based, mice
CD11c = assay: In vitro LNA transfection assay in BMDM: CD11c surface expression by flow cytometry; conditions: DAPT (5 uM) added to culture media of transfected BMDM
Method: (§1) FIG. 3A schematically illustrates an in vitro experimental timeline during which differentiated bone marrow-derived microphages (BMDM) were incubated in conditioned medium from 3T3-L1 adipocytes (CM-3T3-L1A) prior to transfection with microRNA inhibitor locked nucleic acids (LNA) and subsequent culture. Cells and supernatants were harvested at 48 h.
FIG. 3F presents flow cytometry histograms of CD11c expression in the transfected BMDM. For FIG. 3B-FIG. 3F, values are presented as mean±SEM and are from a single experiment representative of 2-3 independent experiments.
FIG. 3G presents the percentage increase in CD11c+ macrophages during the in vitro experiments.
Freshly isolated SVF cells or cultured BMDM were washed in FACS buffer then incubated on ice with FcR-Blocker for 10 m followed by appropriate fluorochrome-conjugated antibodies or isotype controls (BioLegend, anti-CD11b-AlexaFluor488 clone: M1/70, anti-F4/80-PE clone: BM8, anti-DLL4-APC clone: HMD4-1, anti-CD45-PECy7 clone: 30-F11, anti-CD11c-APC clone: N418) for 50 m. Stained cells were washed 3× in FACS buffer then analyzed on a Beckman Coulter FC500 or BD FACSCelesta flow cytometer. Plots were analyzed with Beckman Coulter CXP Software or FlowJo v10.
Bone marrow derived macrophages (BMDM) were differentiated from bone marrow cells (BMC) by flushing the tibia and femur of 6-8 week old female C57Bl/6J mice with PBS. […]

DLL4 = assay: In vitro LNA transfection assay in BMDM: DLL4 in culture supernatants by ELISA; conditions: LNA-transfected BMDM; compared to Mock and Ctr LNA; harvested at 48 h
Method: as §1
FIG. 3B presents the amounts of DLL4 detected in culture supernatants by ELISA during the in vitro experiments.
(§2) Bone marrow derived macrophages (BMDM) were differentiated from bone marrow cells (BMC) by flushing the tibia and femur of 6-8 week old female C57Bl/6J mice with PBS. BMCs were filtered through a 70 μm nylon mesh, RBC-lysed, and washed, then cultured in complete DMEM/F12 supplemented with 10% FBS, 1% penicillin/streptomycin, 2 mM L-glutamine, and 1 U/mL M-CSF (BioLegend, 576406) for 7-10 days. 3T3-L1 adipocyte-conditioned media (CM-3T3-L1A) was generated by differentiating 3T3-L1 preadipocytes into adipocytes according to the Zen-Bio 3T3-L1 Adipocyte Care Manual (ZBM0009.03). Preadipocyte medium, differentiation medium, and adipocyte maintenance medium were also used (Zen-Bio, PM-1-L1, DM-2-L1, AM-1-L1). Conditioned medium was collected between days 7 and 14 post-differentiation, 0.22 μm filtered, aliquoted, and stored at −80° C. until use. For transfection assays, mature BMDM were plated in poly-D-lysine-coated 6-well plates at a density of 5×10^5 cells in 2 ml CM-3T3-L1A containing 10% FBS without antibiotics. BMDM were incubated 24 h (37° C., 5% CO2, 95% humidity) before transfection. Transfection complexes were prepared by diluting Lipofectamine3000 and LNA in Opti-MEM to final concentrations of 2% (v/v) and 0.32 μM respectively. Mixtures were incubated 15-20 m at RT to allow complexes to form. […]
Culture supernatants were aspirated and centrifuged 5000 RPM, 5 m, 4° C. to rid of debris then aliquoted and stored −80° C. before assaying. […] Assays were performed according to manufacturer protocols and plates were read at 450 nm. Concentrations were calculated using standard curves.

[1] = test system: Notch1 intracellular domain (N1ICD); assay: In vitro LNA transfection assay in BMDM: Western blot of cleaved/activated Notch1; conditions: LNA-transfected BMDM, compared to Mock and Ctr LNA
Method: as §1
FIG. 3C presents Western blot results of cleaved/activated Notch1 (N1ICD) during the in vitro experiments. Fold induction relative to Mock is represented below each lane.
as §2, with “form. Meanwhile, conditioned BMDM were washed 3× in pre-warmed Dulbecco's PBS (DPBS), then media replaced with 2 mL Opti-MEM. […] transfection complexes were added drop-wise to each well.” for “form.”

[2] = test system: miRs-30a-5p, -30c-5p, and -30e-5p; assay: In vitro LNA transfection assay in conditioned BMDM: miR-30 expression; conditions: BMDM in CM-3T3-L1A, LNA-transfected; relative to Mock and control LNA (Ctr LNA)
Method: ATMs were lysed in Qiazol and total RNA was purified using Qiagen miRNeasy Microkit. RNA concentration and purity were measured using a NanoDrop 2000 spectrophotometer. 400 ng total RNA was reverse transcribed to cDNA using Qiagen miScript II RT kit with HiFlex buffer. To validate miRNA expression by qRT-PCR, miScript SYBR Green PCR kit and miScript miRNA Primer Assays were used (Qiagen).
as §2, with “form. Meanwhile, conditioned BMDM were washed 3× in pre-warmed Dulbecco's PBS (DPBS), then media replaced with 2 mL Opti-MEM. […] transfection complexes were added drop-wise to each well.” for “form.”

Question: Which “induction of CD11c in miR-30 inhibitor-transfected cells” value (CD11c) does the source give for `C[C@H](NC(=O)Cc1cc(F)cc(F)c1)C(=O)N[C@H](C(=O)OC(C)(C)C)c1ccccc1` [DAPT] here?
Answer: Its value is “reduced induction”.

Question: Which “DLL4 expression (culture supernatants, ELISA)” value (DLL4) does the source give for “Anti-30a: miRNA inhibitor locked nucleic acid (MirCURY LNA, Exiqon) targeting miR-30a-5p; SEQ ID NO: 2 TTCCAGTCGAGGATGTTTAC (LNA-modified miRCURY inhibitor, LNA positions and linkages not given here)” here?
Answer: The value was “increased”.

Question: And the “activated Notch1 intracellular domain (N1ICD) expression” value [1]?
Answer: Its value is “increased”.

Question: And the “expression of miRs-30a-5p, -30c-5p, and -30e-5p” value [2]?
Answer: The value was “decreased expression”.

Question: What does the source list for “Anti-30c: miRNA inhibitor locked nucleic acid (MirCURY LNA, Exiqon) targeting miR-30c-5p; SEQ ID NO: 3 CTGAGAGTGTAGGATGTT (LNA-modified miRCURY inhibitor, LNA positions and linkages not given here)”?
Answer: DLL4 expression (culture supernatants, ELISA) (DLL4): increased; activated Notch1 intracellular domain (N1ICD) expression [1]: increased; expression of miRs-30a-5p, -30c-5p, and -30e-5p [2]: decreased expression

Question: Which “DLL4 expression (culture supernatants, ELISA)” value (DLL4) does the source give for “Anti-30e: miRNA inhibitor locked nucleic acid (MirCURY LNA, Exiqon) targeting miR-30e-5p; SEQ ID NO: 4 TCCAGTCAAGGATGTTTAC (LNA-modified miRCURY inhibitor, LNA positions and linkages not given here)” here?
Answer: Its value is “increased”.

Question: And the “activated Notch1 intracellular domain (N1ICD) expression” value [1]?
Answer: The value was “increased”.

Question: And the “expression of miRs-30a-5p, -30c-5p, and -30e-5p” value [2]?
Answer: Its value is “decreased expression”.
